Experimental data published in ChEMBL document CHEMBL1151886, “Synthesis and SAR of hydroxyethylamine based phenylcarboxyamides as inhibitors of BACE” (Bioorg Med Chem Lett, 2009).

target: T1, Beta-secretase 1 (Homo sapiens, UniProt P56817); assay: Inhibition of BACE1 in human HEK293 cells overexpressing APP with Swedish mutation assessed as inhibition of amyloid beta 40 production; format: cell-based; conditions: hek293
T1 sequence (P56817 whole entry): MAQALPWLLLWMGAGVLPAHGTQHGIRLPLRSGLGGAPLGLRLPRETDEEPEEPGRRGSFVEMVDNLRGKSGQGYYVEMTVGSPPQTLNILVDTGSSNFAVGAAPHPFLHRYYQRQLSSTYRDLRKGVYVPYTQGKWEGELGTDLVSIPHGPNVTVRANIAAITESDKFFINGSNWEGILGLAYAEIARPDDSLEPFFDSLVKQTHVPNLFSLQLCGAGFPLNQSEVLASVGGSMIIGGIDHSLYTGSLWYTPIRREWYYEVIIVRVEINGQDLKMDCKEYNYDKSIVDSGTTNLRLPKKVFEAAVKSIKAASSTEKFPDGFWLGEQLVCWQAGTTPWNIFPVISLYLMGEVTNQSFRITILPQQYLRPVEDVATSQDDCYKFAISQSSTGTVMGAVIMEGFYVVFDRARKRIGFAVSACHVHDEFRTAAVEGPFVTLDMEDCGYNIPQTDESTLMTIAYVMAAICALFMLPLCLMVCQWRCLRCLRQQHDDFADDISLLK

Structure (SMILES) | IC50
COc1cccc(CNC[C@@H](O)[C@H](Cc2cc(F)cc(F)c2)NC(=O)c2cc(/C(C)=N/OCC(C)C)cc(N(c3ccccc3)S(C)(=O)=O)c2)c1 | Not Active
CCCN(CCC)C(=O)c1cc(CC(COC)OC)cc(C(=O)N[C@@H](Cc2cc(F)cc(F)c2)[C@H](O)CNCc2cccc(OC)c2)c1 (some centres undefined) | Not Active
COc1cccc(CNC[C@@H](O)[C@H](Cc2cc(F)cc(F)c2)NC(=O)c2cc(C(C)O)cc(N(c3ccccc3)S(C)(=O)=O)c2)c1 (some centres undefined) | Not Active

same assay, conditions: read-out: IC50

Structure (SMILES) | IC50 [nM]
CCCN(CCC)C(=O)c1cc(Sc2ccccc2)cc(C(=O)N[C@@H](Cc2cc(F)cc(F)c2)[C@H](O)CNCc2cccc(OC)c2)c1 | > 333
COc1cccc(CNC[C@@H](O)[C@H](Cc2cc(F)cc(F)c2)NC(=O)c2cc(C(C)O)cc(N3CCCCS3(=O)=O)c2)c1 (some centres undefined) | 305
COc1cccc(CNC[C@@H](O)[C@H](Cc2cc(F)cc(F)c2)NC(=O)c2cc(/C(C)=N\O)cc(N3CCCCS3(=O)=O)c2)c1 | 117
COc1cccc(CNC[C@@H](O)[C@H](Cc2cc(F)cc(F)c2)NC(=O)c2cccc(N(C)S(C)(=O)=O)c2)c1 | 80
C=CCO/N=C(/C)c1cc(C(=O)N[C@@H](Cc2cc(F)cc(F)c2)[C@H](O)CNCc2cccc(OC)c2)cc(C(=O)N(CCC)CCC)c1 | 120
CO/N=C(/C)c1cc(C(=O)N[C@@H](Cc2cc(F)cc(F)c2)[C@H](O)CNCc2cccc(OC)c2)cc(N2CCCCS2(=O)=O)c1 | 345
C=CCO/N=C(/C)c1cc(C(=O)N[C@@H](Cc2cc(F)cc(F)c2)[C@H](O)CNCc2cccc(OC)c2)cc(N2CCCCS2(=O)=O)c1 | 1230
CCCN(CCC)C(=O)c1cc(C(C)=O)cc(C(=O)N[C@@H](Cc2cc(F)cc(F)c2)[C@H](O)CNCc2cccc(OC)c2)c1 | 19
CCCN(CCC)C(=O)c1cc(CCO)cc(C(=O)N[C@@H](Cc2cc(F)cc(F)c2)[C@H](O)CNCc2cccc(OC)c2)c1 | 53
CCCO/N=C(/C)c1cc(C(=O)N[C@@H](Cc2cc(F)cc(F)c2)[C@H](O)CNCc2cccc(OC)c2)cc(N2CCCCS2(=O)=O)c1 | 205
COc1cccc(CNC[C@@H](O)[C@H](Cc2cc(F)cc(F)c2)NC(=O)c2cc(C(=O)NC(C)c3ccc(F)cc3)cc(C(C)O)c2)c1 (some centres undefined) | 164
COc1cccc(CNC[C@@H](O)[C@H](Cc2cc(F)cc(F)c2)NC(=O)c2cc(C(C)O)cc(N(C)S(C)(=O)=O)c2)c1 (some centres undefined) | 122
CCCN(CCC)C(=O)c1cc(C(=O)N[C@@H](Cc2cc(F)cc(F)c2)[C@H](O)CNCc2cccc(OC)c2)cc(S(=O)(=O)c2ccc(OC)cc2)c1 | 392

Next, values leading:

IC50 [nM] | Structure (SMILES)
45 | CCCN(CCC)C(=O)c1cc(C(=O)N[C@@H](Cc2cc(F)cc(F)c2)[C@H](O)CNCc2cccc(OC)c2)cc(C(C)NC(C)=O)c1 (some centres undefined)
363 | C=CCO/N=C(/C)c1cc(C(=O)N[C@@H](Cc2cc(F)cc(F)c2)[C@H](O)CNCc2cccc(OC)c2)cc(N(C)S(C)(=O)=O)c1
27 | CCCN(CCC)C(=O)c1cc(C(=O)N[C@@H](Cc2cc(F)cc(F)c2)[C@H](O)CNCc2cccc(OC)c2)cc(/C(C)=N\O)c1
92 | COc1cccc(CNC[C@@H](O)[C@H](Cc2cc(F)cc(F)c2)NC(=O)c2cc(C(=O)N[C@H](C)c3ccccc3)cc(C(C)O)c2)c1 (some centres undefined)
162 | C=CCO/N=C(/C)c1cc(C(=O)N[C@@H](Cc2cc(F)cc(F)c2)[C@H](O)CNCc2cccc(OC)c2)cc(N(c2ccccc2)S(C)(=O)=O)c1
> 263 | COc1cccc(CNC[C@@H](O)[C@H](Cc2cc(F)cc(F)c2)NC(=O)c2cc(C(C)=O)cc(N(c3ccccc3)S(C)(=O)=O)c2)c1
> 333 | CCCN(CCC)C(=O)c1cc(Oc2ccccc2)cc(C(=O)N[C@@H](Cc2cc(F)cc(F)c2)[C@H](O)CNCc2cccc(OC)c2)c1
12 | CCCN(CCC)C(=O)c1cc(C(=O)N[C@@H](Cc2cc(F)cc(F)c2)[C@H](O)CNCc2cccc(OC)c2)cc(C(C)O)c1 (some centres undefined)
559 | COc1cccc(CNC[C@@H](O)[C@H](Cc2cc(F)cc(F)c2)NC(=O)c2cc(C(C)=O)cc(N(C)S(C)(=O)=O)c2)c1
137 | COc1cccc(CNC[C@@H](O)[C@H](Cc2cc(F)cc(F)c2)NC(=O)c2cccc(N(c3ccccc3)S(C)(=O)=O)c2)c1
429 | COc1cccc(CNC[C@@H](O)[C@H](Cc2cc(F)cc(F)c2)NC(=O)c2cc(/C(C)=N\O)cc(N(C)S(C)(=O)=O)c2)c1

target: T1, Beta-secretase 1; assay: Binding affinity to BACE assessed as displacement of [3H]BMS-599240; conditions: not given

Structure (SMILES) | IC50
COc1cccc(CNC[C@@H](O)[C@H](Cc2cc(F)cc(F)c2)NC(=O)c2cc(C(C)O)cc(N(c3ccccc3)S(C)(=O)=O)c2)c1 (some centres undefined) | Not Active

same assay, conditions: read-out: IC50

Structure (SMILES) | IC50 [nM]
CCCN(CCC)C(=O)c1cc(Sc2ccccc2)cc(C(=O)N[C@@H](Cc2cc(F)cc(F)c2)[C@H](O)CNCc2cccc(OC)c2)c1 | 13
COc1cccc(CNC[C@@H](O)[C@H](Cc2cc(F)cc(F)c2)NC(=O)c2cc(C(C)O)cc(N3CCCCS3(=O)=O)c2)c1 (some centres undefined) | 43
COc1cccc(CNC[C@@H](O)[C@H](Cc2cc(F)cc(F)c2)NC(=O)c2cc(/C(C)=N\O)cc(N3CCCCS3(=O)=O)c2)c1 | 38
COc1cccc(CNC[C@@H](O)[C@H](Cc2cc(F)cc(F)c2)NC(=O)c2cccc(N(C)S(C)(=O)=O)c2)c1 | 75
C=CCO/N=C(/C)c1cc(C(=O)N[C@@H](Cc2cc(F)cc(F)c2)[C@H](O)CNCc2cccc(OC)c2)cc(C(=O)N(CCC)CCC)c1 | 10
CO/N=C(/C)c1cc(C(=O)N[C@@H](Cc2cc(F)cc(F)c2)[C@H](O)CNCc2cccc(OC)c2)cc(N2CCCCS2(=O)=O)c1 | 52
C=CCO/N=C(/C)c1cc(C(=O)N[C@@H](Cc2cc(F)cc(F)c2)[C@H](O)CNCc2cccc(OC)c2)cc(N2CCCCS2(=O)=O)c1 | 111
CCCN(CCC)C(=O)c1cc(C(C)=O)cc(C(=O)N[C@@H](Cc2cc(F)cc(F)c2)[C@H](O)CNCc2cccc(OC)c2)c1 | 4
CCCN(CCC)C(=O)c1cc(CCO)cc(C(=O)N[C@@H](Cc2cc(F)cc(F)c2)[C@H](O)CNCc2cccc(OC)c2)c1 | 10
COc1cccc(CNC[C@@H](O)[C@H](Cc2cc(F)cc(F)c2)NC(=O)c2cc(/C(C)=N/OCC(C)C)cc(N(c3ccccc3)S(C)(=O)=O)c2)c1 | 242
CCCO/N=C(/C)c1cc(C(=O)N[C@@H](Cc2cc(F)cc(F)c2)[C@H](O)CNCc2cccc(OC)c2)cc(N2CCCCS2(=O)=O)c1 | 25
COc1cccc(CNC[C@@H](O)[C@H](Cc2cc(F)cc(F)c2)NC(=O)c2cc(C(=O)NC(C)c3ccc(F)cc3)cc(C(C)O)c2)c1 (some centres undefined) | 37
COc1cccc(CNC[C@@H](O)[C@H](Cc2cc(F)cc(F)c2)NC(=O)c2cc(C(C)O)cc(N(C)S(C)(=O)=O)c2)c1 (some centres undefined) | 43
CCCN(CCC)C(=O)c1cc(C(=O)N[C@@H](Cc2cc(F)cc(F)c2)[C@H](O)CNCc2cccc(OC)c2)cc(S(=O)(=O)c2ccc(OC)cc2)c1 | 12
CCCN(CCC)C(=O)c1cc(CC(COC)OC)cc(C(=O)N[C@@H](Cc2cc(F)cc(F)c2)[C@H](O)CNCc2cccc(OC)c2)c1 (some centres undefined) | > 2000

Now from value to compound:

IC50 [nM] | Structure (SMILES)
20 | CCCN(CCC)C(=O)c1cc(C(=O)N[C@@H](Cc2cc(F)cc(F)c2)[C@H](O)CNCc2cccc(OC)c2)cc(C(C)NC(C)=O)c1 (some centres undefined)
151 | C=CCO/N=C(/C)c1cc(C(=O)N[C@@H](Cc2cc(F)cc(F)c2)[C@H](O)CNCc2cccc(OC)c2)cc(N(C)S(C)(=O)=O)c1
3 | CCCN(CCC)C(=O)c1cc(C(=O)N[C@@H](Cc2cc(F)cc(F)c2)[C@H](O)CNCc2cccc(OC)c2)cc(/C(C)=N\O)c1
29 | COc1cccc(CNC[C@@H](O)[C@H](Cc2cc(F)cc(F)c2)NC(=O)c2cc(C(=O)N[C@H](C)c3ccccc3)cc(C(C)O)c2)c1 (some centres undefined)
27 | C=CCO/N=C(/C)c1cc(C(=O)N[C@@H](Cc2cc(F)cc(F)c2)[C@H](O)CNCc2cccc(OC)c2)cc(N(c2ccccc2)S(C)(=O)=O)c1
17 | COc1cccc(CNC[C@@H](O)[C@H](Cc2cc(F)cc(F)c2)NC(=O)c2cc(C(C)=O)cc(N(c3ccccc3)S(C)(=O)=O)c2)c1
10 | CCCN(CCC)C(=O)c1cc(Oc2ccccc2)cc(C(=O)N[C@@H](Cc2cc(F)cc(F)c2)[C@H](O)CNCc2cccc(OC)c2)c1
2 | CCCN(CCC)C(=O)c1cc(C(=O)N[C@@H](Cc2cc(F)cc(F)c2)[C@H](O)CNCc2cccc(OC)c2)cc(C(C)O)c1 (some centres undefined)
124 | COc1cccc(CNC[C@@H](O)[C@H](Cc2cc(F)cc(F)c2)NC(=O)c2cc(C(C)=O)cc(N(C)S(C)(=O)=O)c2)c1
11 | COc1cccc(CNC[C@@H](O)[C@H](Cc2cc(F)cc(F)c2)NC(=O)c2cccc(N(c3ccccc3)S(C)(=O)=O)c2)c1
76 | COc1cccc(CNC[C@@H](O)[C@H](Cc2cc(F)cc(F)c2)NC(=O)c2cc(/C(C)=N\O)cc(N(C)S(C)(=O)=O)c2)c1
